Where a name gives a salt, the structure may show the parent alone.
The compounds below were run against T1, DYRK1/DYRK1A (Homo sapiens, UniProt Q13627) (assay: DYRK1/DYRK1A IC50 assay (Reaction Biology Corp.)). Settings: DYRK1/DYRK1A assay from Reaction Biology Corp.
T1 construct: purchased Reaction Biology Corp
Assay type: biochemical

In order of falling IC50:
1. O=c1[nH]c2ccc(-c3ccncc3NCc3ccccc3)cc2[nH]1 [Compound 74b, 5-(3-(Benzylamino)pyridin-4-yl)-1H-benzo[d]imidazol-2(3H)-one]  8580 nM
2. Cc1ncc(NCc2ccccc2)cc1-c1ccc2[nH]c(=O)[nH]c2c1 [Compound 74a, 5-(5-(Benzylamino)-2-methylpyridin-3-yl)-1H-benzo[d]imidazol-2(3H)-one]  2100 nM
3. O=c1[nH]c2ccc(-c3cnccc3NCc3ccccc3)cc2[nH]1 [Compound 74c, 5-(4-(Benzylamino)pyridin-3-yl)-1H-benzo[d]imidazol-2(3H)-one]  1690 nM
4. Cn1c(=O)[nH]c2ccc(-c3cc(NCc4ccccc4)c[n+]([O-])c3)cc21 [Compound 69a, 3-(Benzylamino)-5-(3-methyl-2-oxo-2,3-dihydro-1H-benzo[d]imidazol-5-yl)pyridine 1-oxide]  99.9 nM
5. O=c1[nH]c2ccc(-c3cc(NCc4ccccc4)c[n+]([O-])c3)cc2[nH]1 [Compound 69b, 3-(Benzylamino)-5-(2-oxo-2,3-dihydro-1H-benzo[d]imidazol-5-yl)pyridine 1-oxide]  45.2 nM
6. CC(C)(C)OC(=O)NCCOCCOc1cccc(-n2c(=O)[nH]c3ccc(-c4cncc(NCc5ccccc5)c4)cc32)c1 [Compound 61m, tert-Butyl (2-(2-(3-(6-(5-(benzylamino)pyridin-3-yl)-2-oxo-2,3-dihydro-1H-benzo[d]imidazol-1-yl)phenoxy)ethoxy)ethyl)carbamate]  42.8 nM
7. COCCOc1ccc(-n2c(=O)[nH]c3ccc(-c4cncc(NCc5ccccc5)c4)cc32)cc1 [Compound 61k, 6-(5-(Benzylamino)pyridin-3-yl)-1-(4-(2-methoxyethoxy)phenyl)-1H-benzo[d]imidazol-2(3H)-one]  38 nM
8. O=c1[nH]c2ccc(-c3cncc(NCc4ccccc4)c3)cc2n1C1CCCC1 [Compound 61d, 6-(5-(Benzylamino)pyridin-3-yl)-1-cyclopentyl-1H-benzo[d]imidazol-2(3H)-one]  24 nM
9. CC(C)n1c(=O)[nH]c2ccc(-c3cncc(NCc4ccccc4)c3)cc21 [Compound 61b, 6-(5-(Benzylamino)pyridin-3-yl)-1-isopropyl-1H-benzo[d]imidazol-2(3H)-one]  13.8 nM
10. NCCOc1cccc(-n2c(=O)[nH]c3ccc(-c4cncc(NCc5ccccc5)c4)cc32)c1 [Compound 61n, 1-(3-(2-Aminoethoxy)phenyl)-6-(5-(benzylamino)pyridin-3-yl)-1H-benzo[d]imidazol-2(3H)-one hydrochloride]  7.12 nM
11. O=c1[nH]c2ccc(-c3cncc(NCc4ccccc4)c3)cc2n1-c1cccnc1 [Compound 61g, 6-(5-(Benzylamino)pyridin-3-yl)-1-(pyridin-3-yl)-1H-benzo[d]imidazol-2(3H)-one]  6.47 nM
12. O=c1[nH]c2ccc(-c3cncc(CNc4ccc(F)cc4)c3)cc2[nH]1 [Compound 52c, 5-(5-(((4-Fluorophenyl)amino)methyl)pyridin-3-yl)-1H-benzo[d]imidazol-2(3H)-one]  6.11 nM
13. O=c1[nH]c2ccc(-c3cncc(CNc4ccccc4Cl)c3)cc2[nH]1 [Compound 52d, 5-(5-(((2-Chlorophenyl)amino)methyl)pyridin-3-yl)-1H-benzo[d]imidazol-2(3H)-one]  5.05 nM
14. O=c1[nH]c2ccc(-c3cncc(NCc4ncc[nH]4)c3)cc2[nH]1 [Compound 49c, 5-(5-(((1H-Imidazol-2-yl)methyl)amino)pyridin-3-yl)-1H-benzo[d]imidazol-2(3H)-one]  4.91 nM
15. O=c1[nH]c2ccc(-c3cncc(NCc4ncco4)c3)cc2[nH]1 [Compound 49f, 5-(5-((Oxazol-2-ylmethyl)amino)pyridin-3-yl)-1H-benzo[d]imidazol-2(3H)-one]  4.03 nM
16. NCCOCCOc1cccc(-n2c(=O)[nH]c3ccc(-c4cncc(NCc5ccccc5)c4)cc32)c1 [Compound 61o, 1-(3-(2-(2-Aminoethoxy)ethoxy)phenyl)-6-(5-(benzylamino)pyridin-3-yl)-1H-benzo[d]imidazol-2(3H)-one hydrochloride]  3.9 nM
17. O=c1[nH]c2ccc(-c3cncc(NCc4ccccc4)c3)cc2n1-c1ccccc1 [Compound 61e, 6-(5-(Benzylamino)pyridin-3-yl)-1-phenyl-1H-benzo[d]imidazol-2(3H)-one]  3.8 nM
18. O=c1[nH]c2ccc(-c3cncc(CNc4ccccc4F)c3)cc2[nH]1 [Compound 52a, 5-(5-(((2-Fluorophenyl)amino)methyl)pyridin-3-yl)-1H-benzo[d]imidazol-2(3H)-one]  3.67 nM
19. COCCOc1cccc(-n2c(=O)[nH]c3ccc(-c4cncc(NCc5ccccc5)c4)cc32)c1 [Compound 61j, 6-(5-(Benzylamino)pyridin-3-yl)-1-(3-(2-methoxyethoxy)phenyl)-1H-benzo[d]imidazol-2(3H)-one]  3.47 nM
20. O=c1[nH]c2ccc(-c3cncc(NCc4cc[nH]n4)c3)cc2[nH]1 [Compound 49e, 5-(5-(((1H-Pyrazol-3-yl)methyl)amino)pyridin-3-yl)-1H-benzo[d]imidazol-2(3H)-one]  3.27 nM
21. O=c1[nH]c2ccc(-c3cncc(NCc4ccccc4)c3)cc2n1C1CC1 [Compound 61c, 6-(5-(Benzylamino)pyridin-3-yl)-1-cyclopropyl-1H-benzo[d]imidazol-2(3H)-one]  3.25 nM
22. COc1ccccc1NCc1cncc(-c2ccc3[nH]c(=O)[nH]c3c2)c1 [Compound 52g, 5-(5-(((2-Methoxyphenyl)amino)methyl)pyridin-3-yl)-1H-benzo[d]imidazol-2(3H)-one]  2.72 nM
23. COc1cccc(NCc2cncc(-c3ccc4[nH]c(=O)[nH]c4c3)c2)c1 [Compound 52h, 5-(5-(((3-Methoxyphenyl)amino)methyl)pyridin-3-yl)-1H-benzo[d]imidazol-2(3H)-one]  2.26 nM
24. COc1ccc(NCc2cncc(-c3ccc4[nH]c(=O)[nH]c4c3)c2)cc1 [Compound 52i, 5-(5-(((4-Methoxyphenyl)amino)methyl)pyridin-3-yl)-1H-benzo[d]imidazol-2(3H)-one]  2.2 nM
25. O=c1[nH]c2ccc(-c3cncc(NCc4ccco4)c3)cc2[nH]1 [Compound 49a, 5-(5-((Furan-2-ylmethyl)amino)pyridin-3-yl)-1H-benzo[d]imidazol-2(3H)-one]  1.74 nM
26. CCn1c(=O)[nH]c2ccc(-c3cncc(NCc4ccccc4)c3)cc21 [Compound 61a, 6-(5-(Benzylamino)pyridin-3-yl)-1-ethyl-1H-benzo[d]imidazol-2(3H)-one]  1.41 nM
27. O=c1[nH]c2ccc(-c3cncc(CNc4cccc(F)c4)c3)cc2[nH]1 [Compound 52b, 5-(5-(((3-Fluorophenyl)amino)methyl)pyridin-3-yl)-1H-benzo[d]imidazol-2(3H)-one]  1.31 nM
28. O=c1[nH]c2ccc(-c3cncc(NCc4ccccc4)c3)cc2n1-c1ccccn1 [Compound 61f, 6-(5-(Benzylamino)pyridin-3-yl)-1-(pyridin-2-yl)-1H-benzo[d]imidazol-2(3H)-one]  0.52 nM
29. O=c1[nH]c2ccc(-c3cncc(NCc4cccs4)c3)cc2[nH]1 [Compound 49b, 5-(5-((Thiophen-2-ylmethyl)amino)pyridin-3-yl)-1H-benzo[d]imidazol-2(3H)-one]  0.48 nM
30. C[C@H](Nc1cncc(-c2ccc3[nH]c(=O)n(C)c3c2)c1)c1ccccc1 [Compound 69c]  0.286 nM

Reference: US20220162182A1, “KINASE INHIBITOR COMPOUNDS AND COMPOSITIONS AND METHODS OF USE” (ICAHN SCHOOL OF MEDICINE AT MOUNT SINAI, priority 2018, published 2022)
